Test results published in patent publication US8518869B2, “Pharmaceutical combined preparation containing a therapeutic protein” (Austria Wirtschaftsservice Gesellschaft m.b.H., priority 2004, dated 2013).

What was measured:
[1] = system: collagen-induced platelet aggregation; assay: collagen-induced platelet aggregation in human plasma rich in thrombocytes (aggregometer, method by Born); type: cell-based; conditions: 300 μmol/L, ~1 μg collagen/mL TRP
Description: The platelet aggregation was performed with human plasma rich in thrombocytes (TRP) in a Dual Kanal Chronolog Aggregometer basically according to the method by Born (1969). At the onset of each experiment, the exact dose of collagen was determined for the aggregation induced by collagen (˜1 μg collagen/mL TRP) (95-100% inhibition of the collagen-induced aggregation by 300 μmol/L of acetylsalicylic acid). […] After another minute, aggregation was induced with collagen. Control experiments with collagen alone were carried out after every second to third measurement. […] In experiments with different thiol- and non-thiol-containing substances (N-acetyl-L-cysteine, ascorbic acid, DL-homocysteine, taurine, L-cysteine), pre-incubation was effected primarily with those substances, in analogy to the trials using reduced glutathione.

[2] = From the text: It is understood that often arrangements must be made also for the storage of the preparation according to the invention so that said preparation will remain stable over an extended period of time. […] Hereby, it is possible to store the low-molecular thiol compound and the nitrosated protein of the preparation according to the invention both in combined and in separate form.

Molecule	inhibition at 300 µM [1] [%]	pH-value at which stability in solution is greatest [2]
CC(=O)Oc1ccccc1C(=O)O [acetylsalicylic acid]	95 to 100	–
haemoglobin	–	6 and 7
N[C@@H](CS)C(=O)O [L-cysteine]	–	< 7
